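Five concentrations, 48 hours, 96-well plates. TGI: total growth inhibition.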
Legend:
Experiment in all cases: NCI anticancer screen, dose series, 48 h
786-0 renal = tested on: 786-0 renal
A498 renal = tested on: A498 renal
A549 NSCLC = tested on: A549 NSCLC
BT-549 breast = tested on: BT-549 breast
CAKI-1 renal = tested on: CAKI-1 renal
CCRF-CEM leukemia = tested on: CCRF-CEM leukemia
COLO 205 colon = tested on: COLO 205 colon
DU-145 prostate = tested on: DU-145 prostate
EKVX NSCLC = tested on: EKVX NSCLC
HCC-2998 colon = tested on: HCC-2998 colon
HCT-116 colon = tested on: HCT-116 colon
HCT-15 colon = tested on: HCT-15 colon
HOP-62 NSCLC = tested on: HOP-62 NSCLC
HS 578T breast = tested on: HS 578T breast
HT29 colon = tested on: HT29 colon
IGROV1 ovarian = tested on: IGROV1 ovarian
K-562 leukemia = tested on: K-562 leukemia
KM12 colon = tested on: KM12 colon
M14 melanoma = tested on: M14 melanoma
MALME-3M melanoma = tested on: MALME-3M melanoma
MCF7 breast = tested on: MCF7 breast
MDA-MB-231 breast = tested on: MDA-MB-231 breast
MDA-MB-435 = tested on: MDA-MB-435
MDA-N = tested on: MDA-N
MOLT-4 leukemia = tested on: MOLT-4 leukemia
NCI-H226 lung = tested on: NCI-H226 lung
NCI-H23 lung = tested on: NCI-H23 lung
NCI-H460 lung = tested on: NCI-H460 lung
NCI-H522 lung = tested on: NCI-H522 lung
NCI/ADR-RES ovarian = tested on: NCI/ADR-RES ovarian
OVCAR-3 ovarian = tested on: OVCAR-3 ovarian
OVCAR-5 ovarian = tested on: OVCAR-5 ovarian
OVCAR-8 ovarian = tested on: OVCAR-8 ovarian
RPMI-8226 leukemia = tested on: RPMI-8226 leukemia
RXF 393 renal = tested on: RXF 393 renal
SF-268 CNS = tested on: SF-268 CNS
SF-295 CNS = tested on: SF-295 CNS
SF-539 CNS = tested on: SF-539 CNS
SK-MEL-2 melanoma = tested on: SK-MEL-2 melanoma
SK-MEL-28 melanoma = tested on: SK-MEL-28 melanoma
SK-MEL-5 melanoma = tested on: SK-MEL-5 melanoma
SK-OV-3 ovarian = tested on: SK-OV-3 ovarian
SNB-19 CNS = tested on: SNB-19 CNS
SNB-75 CNS = tested on: SNB-75 CNS
SW-620 colon = tested on: SW-620 colon
TK-10 renal = tested on: TK-10 renal
U251 CNS = tested on: U251 CNS
UACC-257 melanoma = tested on: UACC-257 melanoma
UACC-62 melanoma = tested on: UACC-62 melanoma
UO-31 renal = tested on: UO-31 renal
ACHN renal = tested on: ACHN renal
HL-60(TB) leukemia = tested on: HL-60(TB) leukemia
LOX IMVI melanoma = tested on: LOX IMVI melanoma
OVCAR-4 ovarian = tested on: OVCAR-4 ovarian
PC-3 prostate = tested on: PC-3 prostate
SN12C renal = tested on: SN12C renal
SR leukemia = tested on: SR leukemia
T-47D breast = tested on: T-47D breast
HOP-92 NSCLC = tested on: HOP-92 NSCLC

## Clc1ccc(-c2nc3ccc4ccccc4c3c3c2CCCC3)cc1
786-0 renal
  TGI: > 100 µM
A498 renal
  TGI: > 100 µM
A549 NSCLC
  TGI: > 100 µM
BT-549 breast
  TGI: > 100 µM
CAKI-1 renal
  TGI: > 100 µM
CCRF-CEM leukemia
  TGI: > 100 µM
COLO 205 colon
  TGI: > 100 µM
DU-145 prostate
  TGI: > 100 µM
EKVX NSCLC
  TGI: > 100 µM
HCC-2998 colon
  TGI: > 100 µM
HCT-116 colon
  TGI: > 100 µM
HCT-15 colon
  TGI: > 100 µM
HOP-62 NSCLC
  TGI: > 100 µM
HS 578T breast
  TGI: > 100 µM
HT29 colon
  TGI: > 100 µM
IGROV1 ovarian
  TGI: > 100 µM
K-562 leukemia
  TGI: > 100 µM
KM12 colon
  TGI: > 100 µM
M14 melanoma
  TGI: > 100 µM
MALME-3M melanoma
  TGI: > 100 µM
MCF7 breast
  TGI: > 100 µM
MDA-MB-231 breast
  TGI: > 100 µM
MDA-MB-435
  TGI: > 100 µM
MDA-N
  TGI: > 100 µM
MOLT-4 leukemia
  TGI: > 100 µM
NCI-H226 lung
  TGI: > 100 µM
NCI-H23 lung
  TGI: > 100 µM
NCI-H460 lung
  TGI: > 100 µM
NCI-H522 lung
  TGI: > 100 µM
NCI/ADR-RES ovarian
  TGI: > 100 µM
OVCAR-3 ovarian
  TGI: > 100 µM
OVCAR-5 ovarian
  TGI: > 100 µM
OVCAR-8 ovarian
  TGI: > 100 µM
RPMI-8226 leukemia
  TGI: > 100 µM
RXF 393 renal
  TGI: > 100 µM
SF-268 CNS
  TGI: > 100 µM
SF-295 CNS
  TGI: > 100 µM
SF-539 CNS
  TGI: > 100 µM
SK-MEL-2 melanoma
  TGI: > 100 µM
SK-MEL-28 melanoma
  TGI: > 100 µM
SK-MEL-5 melanoma
  TGI: > 100 µM
SK-OV-3 ovarian
  TGI: > 100 µM
SNB-19 CNS
  TGI: > 100 µM
SNB-75 CNS
  TGI: > 100 µM
SW-620 colon
  TGI: > 100 µM
TK-10 renal
  TGI: > 100 µM
U251 CNS
  TGI: > 100 µM
UACC-257 melanoma
  TGI: > 100 µM
UACC-62 melanoma
  TGI: > 100 µM
UO-31 renal
  TGI: > 100 µM

## CC(=O)O[C@H]1C(=O)[C@@]2(C)C(C(OC(=O)c3ccccc3)[C@]3(O)CC(OC(=O)C(O)C(NC(=O)c4ccccc4)c4cccc(Cl)c4)C(C)=C1C3(C)C)[C@]1(OC(C)=O)CO[C@@H]1C[C@@H]2O (stereo partly drawn)
786-0 renal
  TGI: > 10 µM
A549 NSCLC
  TGI: > 10 µM
ACHN renal
  TGI: > 10 µM
BT-549 breast
  TGI: > 10 µM
CAKI-1 renal
  TGI: > 10 µM
CCRF-CEM leukemia
  TGI: > 10 µM
COLO 205 colon
  TGI: > 10 µM
DU-145 prostate
  TGI: 9.16 µM
EKVX NSCLC
  TGI: > 10 µM
HCC-2998 colon
  TGI: > 10 µM
HCT-116 colon
  TGI: > 10 µM
HCT-15 colon
  TGI: > 10 µM
HL-60(TB) leukemia
  TGI: 4.88 µM
HOP-62 NSCLC
  TGI: > 10 µM
HT29 colon
  TGI: > 10 µM
IGROV1 ovarian
  TGI: > 10 µM
K-562 leukemia
  TGI: > 10 µM
KM12 colon
  TGI: > 10 µM
LOX IMVI melanoma
  TGI: > 10 µM
M14 melanoma
  TGI: > 10 µM
MALME-3M melanoma
  TGI: > 10 µM
MCF7 breast
  TGI: > 10 µM
MDA-MB-231 breast
  TGI: > 10 µM
MDA-MB-435
  TGI: 5.06 µM
MDA-N
  TGI: 3.46 µM
MOLT-4 leukemia
  TGI: > 10 µM
NCI-H226 lung
  TGI: > 10 µM
NCI-H23 lung
  TGI: > 10 µM
NCI-H460 lung
  TGI: > 10 µM
NCI-H522 lung
  TGI: > 10 µM
NCI/ADR-RES ovarian
  TGI: > 10 µM
OVCAR-3 ovarian
  TGI: > 10 µM
OVCAR-4 ovarian
  TGI: > 10 µM
OVCAR-5 ovarian
  TGI: > 10 µM
OVCAR-8 ovarian
  TGI: > 10 µM
PC-3 prostate
  TGI: > 10 µM
RPMI-8226 leukemia
  TGI: 9.49 µM
SF-268 CNS
  TGI: > 10 µM
SF-295 CNS
  TGI: > 10 µM
SF-539 CNS
  TGI: 9.73 µM
SK-MEL-2 melanoma
  TGI: > 10 µM
SK-MEL-5 melanoma
  TGI: > 10 µM
SK-OV-3 ovarian
  TGI: > 10 µM
SN12C renal
  TGI: > 10 µM
SNB-19 CNS
  TGI: > 10 µM
SNB-75 CNS
  TGI: > 10 µM
SR leukemia
  TGI: 6.72 µM
SW-620 colon
  TGI: > 10 µM
T-47D breast
  TGI: > 10 µM
TK-10 renal
  TGI: > 10 µM
U251 CNS
  TGI: > 10 µM
UACC-257 melanoma
  TGI: > 10 µM
UACC-62 melanoma
  TGI: > 10 µM

## CC(NC(=O)OC(C)(C)C)C(=O)NC(Cc1ccccc1)C(=O)NCC(=O)Oc1c(Cl)c(Cl)c(Cl)c(Cl)c1Cl (stereo not drawn)
786-0 renal
  TGI: 46.4 µM
A498 renal
  TGI: 47.8 µM
A549 NSCLC
  TGI: 48.1 µM
ACHN renal
  TGI: 67.6 µM
BT-549 breast
  TGI: 69.3 µM
COLO 205 colon
  TGI: 70.9 µM
EKVX NSCLC
  TGI: 48.7 µM
HCC-2998 colon
  TGI: 30.6 µM
HCT-116 colon
  TGI: 43.9 µM
HL-60(TB) leukemia
  TGI: 53.3 µM
HOP-62 NSCLC
  TGI: 37.4 µM
HOP-92 NSCLC
  TGI: 38.3 µM
HS 578T breast
  TGI: > 100 µM
HT29 colon
  TGI: 73.2 µM
IGROV1 ovarian
  TGI: 44.2 µM
K-562 leukemia
  TGI: > 100 µM
KM12 colon
  TGI: > 100 µM
M14 melanoma
  TGI: 73.8 µM
MALME-3M melanoma
  TGI: 49.2 µM
MCF7 breast
  TGI: 89.6 µM
MDA-MB-231 breast
  TGI: 36 µM
MDA-N
  TGI: 90.6 µM
MOLT-4 leukemia
  TGI: 59.3 µM
NCI-H226 lung
  TGI: 43.5 µM
NCI-H23 lung
  TGI: 40.7 µM
NCI-H460 lung
  TGI: 63.3 µM
OVCAR-5 ovarian
  TGI: 42.8 µM
OVCAR-8 ovarian
  TGI: 43.9 µM
PC-3 prostate
  TGI: 49.4 µM
RPMI-8226 leukemia
  TGI: 54.9 µM
RXF 393 renal
  TGI: 35.4 µM
SK-MEL-2 melanoma
  TGI: 73.1 µM
SK-MEL-28 melanoma
  TGI: 71.1 µM
SK-MEL-5 melanoma
  TGI: 27.4 µM
SN12C renal
  TGI: 30.4 µM
SNB-19 CNS
  TGI: > 100 µM
SNB-75 CNS
  TGI: > 100 µM
SR leukemia
  TGI: 64.7 µM
SW-620 colon
  TGI: 47 µM
TK-10 renal
  TGI: 71.5 µM
U251 CNS
  TGI: 46.7 µM
UACC-257 melanoma
  TGI: 54.5 µM
UACC-62 melanoma
  TGI: 50.4 µM
UO-31 renal
  TGI: 33.9 µM

## COc1cc([N+](=O)[O-])ccc1N1C(=O)C2c3[nH]c4ccccc4c3C3CCC(C(C)(C)C)CC3C2C1=O (stereo not drawn)
A498 renal
  TGI: > 100 µM
A549 NSCLC
  TGI: > 100 µM
ACHN renal
  TGI: > 100 µM
BT-549 breast
  TGI: > 100 µM
CAKI-1 renal
  TGI: 24.9 µM
CCRF-CEM leukemia
  TGI: > 100 µM
COLO 205 colon
  TGI: > 100 µM
DU-145 prostate
  TGI: > 100 µM
EKVX NSCLC
  TGI: > 100 µM
HCC-2998 colon
  TGI: > 100 µM
HCT-116 colon
  TGI: > 100 µM
HCT-15 colon
  TGI: > 100 µM
HL-60(TB) leukemia
  TGI: > 100 µM
HOP-62 NSCLC
  TGI: 81.2 µM
HOP-92 NSCLC
  TGI: > 100 µM
HS 578T breast
  TGI: 43.4 µM
HT29 colon
  TGI: > 100 µM
IGROV1 ovarian
  TGI: > 100 µM
KM12 colon
  TGI: > 100 µM
LOX IMVI melanoma
  TGI: > 100 µM
M14 melanoma
  TGI: 40.5 µM
MALME-3M melanoma
  TGI: > 100 µM
MCF7 breast
  TGI: > 100 µM
MDA-MB-231 breast
  TGI: 75.5 µM
MDA-MB-435
  TGI: > 100 µM
MDA-N
  TGI: > 100 µM
MOLT-4 leukemia
  TGI: > 100 µM
NCI-H226 lung
  TGI: > 100 µM
NCI-H23 lung
  TGI: > 100 µM
NCI-H460 lung
  TGI: > 100 µM
NCI-H522 lung
  TGI: > 100 µM
NCI/ADR-RES ovarian
  TGI: > 100 µM
OVCAR-3 ovarian
  TGI: > 100 µM
OVCAR-4 ovarian
  TGI: > 100 µM
OVCAR-5 ovarian
  TGI: > 100 µM
OVCAR-8 ovarian
  TGI: > 100 µM
PC-3 prostate
  TGI: > 100 µM
RPMI-8226 leukemia
  TGI: > 100 µM
SF-539 CNS
  TGI: > 100 µM
SK-MEL-2 melanoma
  TGI: > 100 µM
SK-MEL-28 melanoma
  TGI: 34.7 µM
SK-MEL-5 melanoma
  TGI: > 100 µM
SK-OV-3 ovarian
  TGI: > 100 µM
SN12C renal
  TGI: > 100 µM
SR leukemia
  TGI: > 100 µM
SW-620 colon
  TGI: > 100 µM
TK-10 renal
  TGI: > 100 µM
U251 CNS
  TGI: 25.4 µM
UACC-257 melanoma
  TGI: > 100 µM
UACC-62 melanoma
  TGI: > 100 µM
UO-31 renal
  TGI: > 100 µM

Source: PubChem BioAssay (NCI)
